{
  "source": "patent US20230218639A1",
  "about": "“USE OF OXYGENATED CHOLESTEROL SULFATES FOR TREATING NEUROLOGICAL CONDITIONS, NEURODEGENERATIVE DISEASES, AND ADDICTION” (Durect Corporation, priority 2020, published 2023)",
  "key": {"DNMT1": {"target": "DNMT1 (Homo sapiens, UniProt P26358)", "sequence (P26358 whole entry)": "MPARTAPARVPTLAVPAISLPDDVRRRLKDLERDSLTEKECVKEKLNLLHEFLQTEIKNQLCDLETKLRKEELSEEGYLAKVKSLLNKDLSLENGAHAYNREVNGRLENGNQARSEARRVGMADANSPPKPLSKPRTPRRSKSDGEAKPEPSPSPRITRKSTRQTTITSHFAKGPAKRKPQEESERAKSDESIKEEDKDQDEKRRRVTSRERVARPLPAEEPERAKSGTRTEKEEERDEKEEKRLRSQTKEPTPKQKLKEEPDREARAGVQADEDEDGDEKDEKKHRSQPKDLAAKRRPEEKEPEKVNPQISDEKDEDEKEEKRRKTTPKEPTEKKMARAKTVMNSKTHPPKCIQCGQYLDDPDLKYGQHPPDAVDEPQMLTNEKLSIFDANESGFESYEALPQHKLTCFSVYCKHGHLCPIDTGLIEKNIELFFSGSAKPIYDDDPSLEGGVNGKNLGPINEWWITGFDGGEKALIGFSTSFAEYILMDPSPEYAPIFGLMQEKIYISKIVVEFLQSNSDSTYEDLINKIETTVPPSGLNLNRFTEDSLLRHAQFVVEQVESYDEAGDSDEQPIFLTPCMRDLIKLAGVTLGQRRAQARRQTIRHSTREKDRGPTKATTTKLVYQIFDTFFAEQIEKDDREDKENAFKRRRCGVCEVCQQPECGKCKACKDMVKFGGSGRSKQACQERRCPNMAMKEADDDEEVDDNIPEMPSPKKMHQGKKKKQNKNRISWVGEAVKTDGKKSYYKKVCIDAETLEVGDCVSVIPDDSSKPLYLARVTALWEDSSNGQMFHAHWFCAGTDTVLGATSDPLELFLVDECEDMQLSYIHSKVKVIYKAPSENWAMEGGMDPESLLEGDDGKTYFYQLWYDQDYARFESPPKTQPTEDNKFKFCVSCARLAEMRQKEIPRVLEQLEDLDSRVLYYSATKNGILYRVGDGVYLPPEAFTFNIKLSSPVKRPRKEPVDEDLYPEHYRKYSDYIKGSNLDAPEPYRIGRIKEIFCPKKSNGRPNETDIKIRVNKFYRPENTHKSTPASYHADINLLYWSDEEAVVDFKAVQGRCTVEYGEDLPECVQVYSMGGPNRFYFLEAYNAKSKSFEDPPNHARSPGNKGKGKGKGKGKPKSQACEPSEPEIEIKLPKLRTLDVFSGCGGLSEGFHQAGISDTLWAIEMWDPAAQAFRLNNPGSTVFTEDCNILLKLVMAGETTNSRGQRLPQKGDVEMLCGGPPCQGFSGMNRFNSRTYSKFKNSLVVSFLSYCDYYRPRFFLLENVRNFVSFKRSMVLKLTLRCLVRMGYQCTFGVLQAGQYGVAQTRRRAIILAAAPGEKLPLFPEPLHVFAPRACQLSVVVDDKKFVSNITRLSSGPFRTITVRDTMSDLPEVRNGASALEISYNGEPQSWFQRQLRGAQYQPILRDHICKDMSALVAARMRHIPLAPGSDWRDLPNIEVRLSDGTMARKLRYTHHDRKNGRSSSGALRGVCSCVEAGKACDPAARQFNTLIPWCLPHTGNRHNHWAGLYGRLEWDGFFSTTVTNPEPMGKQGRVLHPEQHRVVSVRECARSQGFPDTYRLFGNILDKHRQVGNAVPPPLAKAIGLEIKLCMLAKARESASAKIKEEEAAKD", "assay": "DNMT1 activity assay (Poly(dI-dC) substrate, ^3H-SAM)", "type": "biochemical", "conditions": "for pEC50: read-out: EC50, activation of DNMT-1", "method": "(§1) For the DNMT1 activity assay, the substrate solution, 0.001 mg/ml Poly(dI-dC):Poly(dI-dC) in 50 mM Tris-HCl, pH 7.5, 50 mM NaCl, 5 mM EDTA, 5 mM DTT, 1 mM PMSF, 5% glycerol, 0.01% Brij35, 1% DMSO was used. For the DNMT3a/3b activity assay, 0.0075 mg/ml Lambda DNA in 50 mM Tris-HCl, pH 7.5, 50 mM NaCl, 5 mM EDTA, 5 mM DTT, 1 mM PMSF, 5% glycerol, 1% DMSO, was used. The indicated DNMT1, DNMT3a, or DNMT3b was added to the appropriate substrate solution and gently mixed. […] The mixtures were first incubated for 15 min, then ^3H-SAM was added to the reaction mixture to initiate the reaction, and the mixture was incubated for 60 min at 30° C. Following incubation, the reaction mixture was finally transferred to filter-paper for detection of radioactivity counts."}, "[1]": {"assay": "Metabolite profiling of plasma, urine, feces, intravenous dose", "type": "in vivo, Sprague Dawley rats", "conditions": "intravenous 10 mg/kg", "experimental": "Nine male Sprague Dawley rats (Group 1) were designated for the pharmacokinetic phase, 3 male Sprague Dawley rats (Group 2) for the excretion mass balance phase, and 7 male Sprague Dawley rats (Group 3) and 9 male Long Evans rats (Group 4) for the tissue distribution phase. All animals received a single intravenous dose of [^14C]-25HC3S at 10 mg/kg and a target radioactivity of 225 μCi/kg. Blood samples were collected from all Group 1 animals at approximately 0.083, 0.25, 0.5, 1, 2, 4, 8, 12, 24, 48, and 72 hours post-dose. Urine and feces were collected from all Group 2 animals periodically through 168 hours post-dose. […] Following blood collection, animals were euthanized by CO2 inhalation and carcasses frozen in a dry ice/hexane bath for processing by quantitative whole body autoradiography. Whole blood, plasma, urine, feces, cage rinse, and cage wash were analyzed for total radioactivity by liquid scintillation counting."}, "[2]": {"assay": "Metabolite profiling of plasma and feces, oral dose", "type": "in vivo, rats", "experimental": "Radiolabeled components in plasma and feces extracts were profiled and identified using radio-high performance liquid chromatography (HPLC) and high performance liquid chromatography/mass spectrometry (HPLC/MS) methods.\nPlasma pools were prepared for Group 1 (75 mg/kg, [^14C]-25HC3S) samples collected at 2, 4, and 6 hours post-dose. […] One metabolite M29 was identified as 25-hydroxycholesterol with 37% ROI and a concentration of 1233 ng-equiv./g.\nFeces pools were prepared for Group 2 (75 mg/kg, [^14C]-25HC3S) samples collected from 0 to 24, 24 to 48, 48 to 72, 72 to 96, 96 to 120, 120 to 144, and 144 to 168 hours post-dose. A total of eleven metabolites were identified. None of the metabolites were present at ≥5% of dose. Metabolites present at 2-5% of dose were M1 (4.5% of total dose and 1%-69% ROI), M3 (4.6% of total dose and 1%-44% ROI), M4 (2.0% of total dose and 0%-10% ROI), M8 (3.1% of total dose and 1%-46% ROI), […], and M30 (3.3% of total dose and 0%-5% ROI)."}, "DNMT1/3a/3b": {"system": "DNMT1/3a/3b", "assay": "Enzyme kinetic study, DNMT1/3a/3b activities overall", "type": "biochemical", "conditions": "for effect on enzymatic activities: controls", "method": "as §1"}, "DNMT3a": {"target": "DNMT3a (Homo sapiens, UniProt Q9Y6K1)", "sequence (Q9Y6K1 whole entry, looked up)": "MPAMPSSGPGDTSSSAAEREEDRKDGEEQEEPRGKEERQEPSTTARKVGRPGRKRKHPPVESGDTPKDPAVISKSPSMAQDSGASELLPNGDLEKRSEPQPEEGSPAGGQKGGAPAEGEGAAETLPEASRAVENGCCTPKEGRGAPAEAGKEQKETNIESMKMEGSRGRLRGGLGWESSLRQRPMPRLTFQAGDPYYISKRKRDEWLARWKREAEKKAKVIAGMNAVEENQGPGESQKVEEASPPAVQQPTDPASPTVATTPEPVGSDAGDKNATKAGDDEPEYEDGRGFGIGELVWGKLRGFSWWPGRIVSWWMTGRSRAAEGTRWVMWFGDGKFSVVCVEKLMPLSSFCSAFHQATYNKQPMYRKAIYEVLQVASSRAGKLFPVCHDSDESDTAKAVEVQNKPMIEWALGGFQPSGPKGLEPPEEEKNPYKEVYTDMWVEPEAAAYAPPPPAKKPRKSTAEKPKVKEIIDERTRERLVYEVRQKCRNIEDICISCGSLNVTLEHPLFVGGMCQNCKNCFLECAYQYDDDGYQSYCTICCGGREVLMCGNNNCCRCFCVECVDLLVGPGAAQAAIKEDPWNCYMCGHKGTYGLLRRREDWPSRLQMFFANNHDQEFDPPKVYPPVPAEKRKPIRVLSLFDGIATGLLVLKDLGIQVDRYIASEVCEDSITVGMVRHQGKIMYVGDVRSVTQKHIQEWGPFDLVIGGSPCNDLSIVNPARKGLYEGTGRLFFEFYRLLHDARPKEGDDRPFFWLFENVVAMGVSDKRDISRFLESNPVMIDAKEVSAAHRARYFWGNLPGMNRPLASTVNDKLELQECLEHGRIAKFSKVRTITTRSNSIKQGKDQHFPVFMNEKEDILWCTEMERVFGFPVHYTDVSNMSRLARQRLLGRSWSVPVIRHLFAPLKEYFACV", "assay": "DNMT3a activity assay (Lambda DNA substrate, ^3H-SAM)", "type": "biochemical", "method": "as §1"}, "DNMT3b": {"target": "DNMT3b (Homo sapiens, UniProt Q9UBC3)", "assay": "DNMT3b activity assay (Lambda DNA substrate, ^3H-SAM)", "type": "biochemical", "method": "as §1"}, "[3]": {"conditions": "Sprague Dawley, rat, in vivo, po, 75 mg/kg"}},
  "note": "pEC50, pIC50: −log10 of the molar value.",
  "data": [
    {"compound": "C[C@H](CCCC(C)(C)O)[C@H]1CC[C@H]2[C@@H]3CC=C4C[C@@H](O)CC[C@]4(C)[C@H]3CC[C@]12C", "note": "[25HC, 25-Hydroxycholesterol, reference compound]", "values": [
      {"measurement": "activation of DNMT-1 activity", "setting": "DNMT1", "result": 8, "unit": "fold"},
      {"measurement": "pEC50", "setting": "DNMT1", "result": 5.46},
      {"measurement": "detection in plasma, urine, or feces samples", "setting": "[1]", "result": "Neither desmosterol sulfate nor 25-hydroxycholesterol was detected"},
      {"measurement": "% of total dose in feces", "setting": "[2]; [3]", "result": "1.9 % of total dose"},
      {"measurement": "ROI in feces", "setting": "[2]; [3]", "result": "0-2%"},
      {"measurement": "relative observed intensity (ROI) in plasma", "setting": "[2]; Sprague Dawley, rat, in vivo, po, 75 mg/kg, 2 h", "result": 37, "unit": "%"}
    ]},
    {"compound": "CC(C)CCC[C@@H](C)[C@H]1CC[C@H]2[C@@H]3CC=C4C[C@@H](O)CC[C@]4(C)[C@H]3CC[C@]12C", "note": "[Xol, Cholesterol]", "values": [
      {"measurement": "effect on enzymatic activities", "setting": "DNMT1/3a/3b", "result": "did not significantly affect"}
    ]},
    {"compound": "CC(C)CCC[C@@H](C)[C@H]1CC[C@H]2[C@@H]3CC=C4C[C@@H](OS(=O)(=O)O)CC[C@]4(C)[C@H]3CC[C@]12C", "note": "[Xol3S, 5-cholesten-3β-ol, 3-sulfate, reference compound]", "values": [
      {"measurement": "pIC50", "setting": "DNMT3a", "result": 4.09},
      {"measurement": "effect on enzymatic activities", "setting": "DNMT1/3a/3b", "result": "did not significantly affect"}
    ]},
    {"compound": "Nc1ncnc2c1ncn2[C@@H]1O[C@H](CSCC[C@H](N)C(=O)O)[C@@H](O)[C@H]1O", "note": "[SAH, S-adenosyl homocysteine]", "values": [
      {"measurement": "inhibition at 1 µM", "setting": "DNMT1; read-out: inhibition of DNMT1 activity", "result": 95, "unit": "%"}
    ]},
    {"compound": "desmosterol sulfate", "values": [
      {"measurement": "detection in plasma, urine, or feces samples", "setting": "[1]", "result": "Neither desmosterol sulfate nor 25-hydroxycholesterol was detected"},
      {"measurement": "presence in plasma or feces samples", "setting": "[2]; oral 75 mg/kg", "result": "not found"}
    ]},
    {"compound": "CC(CO)CCC[C@@H](C)[C@H]1CC[C@H]2[C@@H]3CC=C4C[C@@H](OS(=O)(=O)O)CC[C@]4(C)[C@H]3CC[C@]12C", "note": "(stereo partly drawn) [27HC3S, 5-cholesten-3β, 27-diol 3-sulfate]", "values": [
      {"measurement": "pIC50", "setting": "DNMT1", "result": 5.45},
      {"measurement": "pIC50", "setting": "DNMT3a", "result": 5.05},
      {"measurement": "pIC50", "setting": "DNMT3b", "result": 5.57}
    ]},
    {"compound": "C[C@@H](CO)CCC[C@@H](C)[C@H]1CC[C@H]2[C@@H]3CC=C4C[C@@H](O)CC[C@]4(C)[C@H]3CC[C@]12C", "note": "[27HC, 27-Hydroxycholesterol]", "values": [
      {"measurement": "pEC50", "setting": "DNMT1", "result": 4.48},
      {"measurement": "effect on other enzymes", "setting": "DNMT1/3a/3b; enzymes other than DNMT-1", "result": "no effect"}
    ]}
  ]
}
